The values below come from patent US11352363B1, “Spiropyrrolidine derived antiviral agents” (Enanta Pharmaceuticals, Inc., priority 2020, dated 2022).

The structures appear in SMILES notation. Some results are limits rather than exact numbers.

The first assay addresses SARS-CoV-2 3CL-protease (Severe acute respiratory syndrome coronavirus 2 (2019-nCoV) (SARS-CoV-2), UniProt P0DTD1). The experiment in a line: SARS-CoV-2 3C-like (3CL) protease fluorescence assay (FRET). Type of assay: biochemical.
Settings: not given
For `CC(OC(C)(C)C)[C@H](NC(=O)OCc1ccccc1)C(=O)N1C[C@]2(C[C@H]1C#N)C(=O)Nc1ccccc12` (stereo partly shown) [Compound 6], the IC50 is greater than 1000 nM.
The molecule `COc1cccc2[nH]c(C(=O)N[C@H](C(=O)N3C[C@]4(C[C@H]3C#N)C(=O)Nc3ccccc34)C(C)OC(C)(C)C)cc12` (stereo partly shown) [Compound 22] registered a half-inhibitory concentration (IC50) of 100 to 1000 nM.

Staying with this assay, now noted: read-out: FRET IC50.
Turning to `CC(C)C[C@H](NC(=O)OCc1ccccc1)C(=O)N1C[C@]2(C[C@H]1C#N)C(=O)Nc1ccccc12` [Compound 1], the IC50 fell in the range of 100 to 1000 nM.
For `N#C[C@@H]1C[C@@]2(CN1C(=O)[C@H](CC1CCC1)NC(=O)OCc1ccccc1)C(=O)Nc1ccccc12` [Compound 2], the IC50 was less than 100 nM.
Regarding `CC(C)(C)[C@H](NC(=O)OCc1ccccc1)C(=O)N1C[C@]2(C[C@H]1C#N)C(=O)Nc1ccccc12` [Compound 3], the IC50 is greater than 1000 nM.
As for `N#C[C@@H]1C[C@@]2(CN1C(=O)[C@H](CC1CC1)NC(=O)OCc1ccccc1)C(=O)Nc1ccccc12` [Compound 4], the IC50 was less than 100 nM.
As to `CC(C)(C)C[C@H](NC(=O)OCc1ccccc1)C(=O)N1C[C@]2(C[C@H]1C#N)C(=O)Nc1ccccc12` [Compound 5], the IC50 was less than 100 nM.
Consider `CC(C)(F)C[C@H](NC(=O)OCc1ccccc1)C(=O)N1C[C@]2(C[C@H]1C#N)C(=O)Nc1ccccc12` [Compound 7], for which the IC50 was less than 100 nM.
Take `CC(C)C[C@H](NC(=O)OCC1(c2ccccc2)CC1)C(=O)N1C[C@]2(C[C@H]1C#N)C(=O)Nc1ccccc12` [Compound 8]: the IC50 is less than 100 nM.
Regarding `CC(C)C[C@H](NC(=O)OC(C)(C)c1cccc(Cl)c1)C(=O)N1C[C@]2(C[C@H]1C#N)C(=O)Nc1ccccc12` [Compound 9], the concentration for half-maximal inhibition (IC50) was 100 to 1000 nM.
Take `CC(C)(C)OC[C@H](NC(=O)OCc1ccccc1)C(=O)N1C[C@]2(C[C@H]1C#N)C(=O)Nc1ccccc12` [Compound 10]: the IC50 lay in the range of 100 to 1000 nM.
Turning to `COc1cccc2[nH]c(C(=O)N[C@@H](CC(C)C)C(=O)N3C[C@]4(C[C@H]3C#N)C(=O)Nc3ccccc34)cc12` [Compound 11], the IC50 is less than 100 nM.
`COc1cccc2[nH]c(C(=O)N[C@H](CC(C)C)C(=O)N3C[C@]4(C[C@H]3C#N)C(=O)Nc3ccccc34)cc12` [Compound 12]: the IC50 was greater than 1000 nM.
The same measure, in the same setting: with `COc1cccc2[nH]c(C(=O)N[C@@H](CC3CCCCC3)C(=O)N3C[C@]4(C[C@H]3C#N)C(=O)Nc3ccccc34)cc12` [Compound 13] the figure was less than 100 nM; with `COc1cccc2[nH]c(C(=O)N[C@H](CC3CCCCC3)C(=O)N3C[C@]4(C[C@H]3C#N)C(=O)Nc3ccccc34)cc12` [Compound 14], 100 to 1000 nM; with `COc1cccc2[nH]c(C(=O)N[C@@H](CC(C)(C)C)C(=O)N3C[C@]4(C[C@H]3C#N)C(=O)Nc3ccccc34)cc12` [Compound 15], less than 100 nM.
Take `COc1cccc2[nH]c(C(=O)N[C@H](CC(C)(C)C)C(=O)N3C[C@]4(C[C@H]3C#N)C(=O)Nc3ccccc34)cc12` [Compound 16]: the IC50 fell in the range of 100 to 1000 nM.
For the molecule `COc1cccc2[nH]c(C(=O)N[C@@H](CC3CCC3)C(=O)N3C[C@]4(C[C@H]3C#N)C(=O)Nc3ccccc34)cc12` [Compound 17], the IC50 was less than 100 nM.
With `CC(C)(C)[C@H](NC(=O)c1cc2c(F)cccc2[nH]1)C(=O)N1C[C@]2(C[C@H]1C#N)C(=O)Nc1ccccc12` [Compound 18], the half-inhibitory concentration (IC50) is greater than 1000 nM.
Turning to `COc1cccc2[nH]c(C(=O)N[C@@H](CC3CC3)C(=O)N3C[C@]4(C[C@H]3C#N)C(=O)Nc3ccccc34)cc12` [Compound 19], the concentration for half-maximal inhibition (IC50) was less than 100 nM.
Consider `CC(C)(C)C[C@H](NC(=O)c1cc2c(F)c(F)ccc2[nH]1)C(=O)N1C[C@]2(C[C@H]1C#N)C(=O)Nc1ccccc12` [Compound 20], for which the IC50 was less than 100 nM.
Consider `COc1cccc2[nH]c(C(=O)N[C@@H](CC(C)C)C(=O)N3C[C@]4(C[C@H]3C=O)C(=O)Nc3ccccc34)cc12` [Compound 23], for which the IC50 is less than 100 nM.
The same measure, in the same setting: with `CC(C)C[C@H](NC(=O)c1cc2c(F)cccc2[nH]1)C(=O)N1C[C@]2(C[C@H]1C=O)C(=O)Nc1ccccc12` [Compound 25] the figure was less than 100 nM; with `CC(C)C[C@H](NC(=O)c1cc2c(F)cccc2[nH]1)C(=O)N1C[C@]2(C[C@H]1C#N)C(=O)Nc1ccccc12` [Compound 27], less than 100 nM; with `CC(C)C[C@H](NC(=O)c1cc2c(F)cccc2[nH]1)C(=O)N1C[C@]2(C[C@H]1C#N)C(=O)Nc1c(F)cccc12` [Compound 28], less than 100 nM.
Turning to `COc1cccc2[nH]c(C(=O)N[C@@H](CC(C)C)C(=O)N3C[C@]4(C[C@H]3C(O)S(=O)(=O)O)C(=O)Nc3ccccc34)cc12` (stereo partly shown) [Compound 29], the IC50 is less than 100 nM.
With `CC(C)C[C@@H](C(=O)N1C[C@]2(C[C@H]1C(O)S(=O)(=O)O)C(=O)Nc1ccccc12)N(C)C(=O)c1cc2c(F)cccc2[nH]1` (stereo partly shown) [Compound 30], the IC50 was less than 100 nM.
Same read-out and setting: to `COc1cccc2[nH]c(C(=O)N[C@@H](CC(C)C)C(=O)N3C[C@]4(C[C@H]3C(=O)C(=O)NC3CC3)C(=O)Nc3ccccc34)cc12` [Compound 31] belongs 100 to 1000 nM.
Turning to `COc1cccc2[nH]c(C(=O)N[C@@H](CC(C)C)C(=O)N3C[C@]4(C[C@H]3C(=O)C(=O)NCc3ccccc3)C(=O)Nc3ccccc34)cc12` [Compound 32], the 50% inhibitory concentration (IC50) is less than 100 nM.
On the same count and under the same terms, with `COc1cccc2[nH]c(C(=O)N[C@@H](CC(C)C)C(=O)N3C[C@]4(C[C@H]3C(=O)C(=O)NC3CCCCC3)C(=O)Nc3ccccc34)cc12` [Compound 33] the figure was less than 100 nM; with `COc1cccc2[nH]c(C(=O)N(C)[C@@H](CC(C)C)C(=O)N3C[C@]4(C[C@H]3C(=O)C(=O)NC3CCCCC3)C(=O)Nc3ccccc34)cc12` [Compound 34], greater than 1000 nM; with `CC(C)C[C@@H](C(=O)N1C[C@]2(C[C@H]1C(=O)C(=O)NC1CCCCC1)C(=O)Nc1ccccc12)N(C)C(=O)c1cc2c(F)cccc2[nH]1` [Compound 35], greater than 1000 nM.
For the molecule `CC(C)C[C@@H](C(=O)N1C[C@]2(C[C@H]1C(=O)C(=O)NC1CC1)C(=O)Nc1ccccc12)N(C)C(=O)c1cc2c(F)cccc2[nH]1` [Compound 36], the IC50 lay within 100 to 1000 nM.
As to `COc1cccc2[nH]c(C(=O)N[C@@H](CC(C)C)C(=O)N3C[C@]4(C[C@H]3C(=O)O)C(=O)Nc3ccccc34)cc12` [Compound 37], the half-maximal inhibitory concentration (IC50) fell in the range of 100 to 1000 nM.
As for `COc1cccc2[nH]c(C(=O)N[C@@H](CC(C)C)C(=O)N3C[C@]4(C[C@H]3C(=O)NS(=O)(=O)C3CC3)C(=O)Nc3ccccc34)cc12` [Compound 38], the IC50 was greater than 1000 nM.
`CC(C)C[C@@H](C(=O)N1C[C@]2(C[C@H]1C#N)C(=O)Nc1ccccc12)N(C)C(=O)OCc1ccccc1` [Compound 39]: the IC50 is less than 100 nM.
Take `CN(C(=O)OCc1ccccc1)[C@@H](CC(C)(C)C)C(=O)N1C[C@]2(C[C@H]1C#N)C(=O)Nc1ccccc12` [Compound 40]: the concentration for half-maximal inhibition (IC50) is less than 100 nM.
As to `COc1cccc2[nH]c(C(=O)N(C)[C@@H](CC(C)C)C(=O)N3C[C@]4(C[C@H]3C#N)C(=O)Nc3ccccc34)cc12` [Compound 42], the IC50 was less than 100 nM.
Take `CC(C)C[C@@H](C(=O)N1C[C@]2(C[C@H]1C#N)C(=O)Nc1ccccc12)N(C)C(=O)c1sc2cc(F)ccc2c1Cl` [Compound 43]: the concentration for half-maximal inhibition (IC50) is 100 to 1000 nM.
`CC(C)C[C@@H](C(=O)N1C[C@]2(C[C@H]1C#N)C(=O)Nc1ccccc12)N(C)C(=O)c1cc2c(F)cccc2[nH]1` [Compound 44]: the IC50 was less than 100 nM.
Consider `CC(C)C[C@@H](C(=O)N1C[C@]2(C[C@H]1C#N)C(=O)Nc1ccccc12)N(C)C(=O)c1cc2c(C3CC3)cccc2[nH]1` [Compound 45], for which the IC50 is less than 100 nM.
For `CC(C)C[C@@H](C(=O)N1C[C@]2(C[C@H]1C#N)C(=O)Nc1ccccc12)N(C)C(=O)c1cc2c(F)cc(F)cc2[nH]1` [Compound 46], the IC50 is less than 100 nM.
In the case of `Cc1c(C(=O)N(C)[C@@H](CC(C)C)C(=O)N2C[C@]3(C[C@H]2C#N)C(=O)Nc2ccccc23)[nH]c2cc(F)cc(F)c12` [Compound 47], the IC50 is less than 100 nM.
With `CC(C)C[C@@H](C(=O)N1C[C@]2(C[C@H]1C#N)C(=O)Nc1ccccc12)N(C)C(=O)c1[nH]c2ccccc2c1-c1ccccc1` [Compound 48], the concentration for half-maximal inhibition (IC50) was 100 to 1000 nM.
Consider `CC(C)C[C@@H](C(=O)N1C[C@]2(C[C@H]1C#N)C(=O)Nc1ccccc12)N(C)C(=O)c1cc2c(OC(F)(F)F)cccc2[nH]1` [Compound 49], for which the IC50 is less than 100 nM.
Turning to `CC(C)C[C@@H](C(=O)N1C[C@]2(C[C@H]1C#N)C(=O)Nc1ccccc12)N(C)C(=O)c1cc2ccc(F)cc2[nH]1` [Compound 50], the IC50 is less than 100 nM.
Turning to `CC(C)C[C@@H](C(=O)N1C[C@]2(C[C@H]1C#N)C(=O)Nc1ccccc12)N(C)C(=O)c1cc2c(OC(F)F)cccc2[nH]1` [Compound 51], the IC50 was less than 100 nM.
Turning to `COc1cccc2c1cc(C(=O)N(C)[C@@H](CC(C)C)C(=O)N1C[C@]3(C[C@H]1C#N)C(=O)Nc1ccccc13)n2C` [Compound 53], the IC50 was less than 100 nM.
For the molecule `CC(C)C[C@@H](C(=O)N1C[C@]2(C[C@H]1C#N)C(=O)Nc1ccccc12)N(C)C(=O)c1cc2cc(-c3ccccc3)ccc2[nH]1` [Compound 54], the IC50 is less than 100 nM.
As for `CC(C)C[C@@H](C(=O)N1C[C@]2(C[C@H]1C#N)C(=O)Nc1ccccc12)N(C)C(=O)c1cc2ccc(-c3ccccc3)cc2[nH]1` [Compound 55], the IC50 was less than 100 nM.
As for `CC(C)C[C@@H](C(=O)N1C[C@]2(C[C@H]1C#N)C(=O)Nc1ccccc12)N(C)C(=O)c1cc2cc(C(C)(C)C)ccc2[nH]1` [Compound 56], the IC50 is less than 100 nM.
Still for that read-out and setting: with `CC(C)C[C@@H](C(=O)N1C[C@]2(C[C@H]1C#N)C(=O)Nc1ccccc12)N(C)C(=O)c1cc2ccc(C(C)(C)C)cc2[nH]1` [Compound 57] the figure was less than 100 nM.
Take `COc1ccc(Cl)c(C(=O)N(C)[C@@H](CC(C)C)C(=O)N2C[C@]3(C[C@H]2C#N)C(=O)Nc2ccccc23)c1` [Compound 58]: the half-maximal inhibitory concentration (IC50) is less than 100 nM.
The same measure, in the same setting: with `CC(C)C[C@@H](C(=O)N1C[C@]2(C[C@H]1C#N)C(=O)Nc1ccccc12)N(C)C(=O)c1ncccc1Cl` [Compound 59] the figure was less than 100 nM.

Still in this assay, the particulars now being: recombinant SARS-CoV-2 3CL-protease 10 nM, 30 min preincubation, run in duplicate; read-out: FRET IC50.
Take `COc1cc(C#N)cc2[nH]c(C(=O)N[C@@H](CC(C)C)C(=O)N3C[C@]4(C[C@H]3C#N)C(=O)Nc3ccccc34)cc12` [Compound 26]: the IC50 was in the range of 100 to 1000 nM.

What is called IC50 is the concentration at which inhibition is half-maximal.
